SMILES | melting point [°C]
CC(C)NCC(O)COc1cccc2c1SCCC2 (stereo unspecified) | 91 to 92
Cn1c(Cc2cccc(C(F)(F)F)c2)nc2c(-c3cccc(C(=O)NCCO)c3)cccc21 | 147 to 148
COC(=O)CCSc1ccc(C=C(C)c2ccc3c(c2)C(C)(C)CCC3(C)C)cc1 | 90 to 92
CCOP(=O)(OCC)c1ccc(N)cc1 | 112 to 116
CCO/C(=N/OC(C)=O)C1Cc2cc(C(=O)c3ccccc3F)c(O)c(Cl)c2O1 (stereo unspecified) | 111 to 112
CCCCn1ccc(N2CCC(c3ccc(C(C)(C)O)cc3F)CC2)c(Cl)c1=O | 150
CC(C)c1cc(C(C)C)c(CC#N)c(C(C)C)c1C#N | 98 to 101
O=C(c1ccc2c(c1)OCC(c1ccccc1)=N2)N1CCOCC1 | 175 to 177
O=C(O)CCc1cnoc1-c1ccc(C(F)(F)F)cc1 | 171 to 172
Cc1c(Br)cc(S(C)(=O)=O)c(C)c1Cl | 124 to 126
OC1(C23CC4CC(CC(C4)C2)C3)CCCCC1 | 166 to 168
Cc1ccc(C(=O)Nc2c[nH]nc2C(=O)NCCC(F)(F)F)cn1 | 196 to 197
Cc1ccc(C(=O)c2ccc(OCC(=O)O)c(Cl)c2Cl)cc1 | 176 to 177
CN(c1cccc2cc(C3=NCC(C)(CCOS(C)(=O)=O)S3)[nH]c12)S(=O)(=O)c1cccs1 (stereo unspecified) | 149 to 150
COC(=O)C(C(=O)OC)=C(/C=C/Cl)CCl | 56
CN(C)C(=O)CCSC(SCCC(=O)O)c1cccc(C=Cc2ccc3ccc(Cl)cc3n2)c1 (stereo unspecified) | 153 to 155
C=CCCCOc1ccc2c(=O)cc(-c3ccccc3)oc2c1 | 104 to 106
CCCCc1c(/C=C/C(=O)O)ccc2c(OC)cccc12 | 202 to 204
Cc1cc(NN)nc(-c2ccncc2)n1 | 150 to 152
CN1CCN(C(=O)c2cccn2Cc2ccccc2N)CC1 | 139 to 141
CN1CCN(C2=Nc3ccccc3S(=O)(=O)N2)CC1 | 265 to 267
N#Cc1ccc(-c2ccc(OCCC(=O)NO)cc2)cc1 | 114 to 118
CCSC(=O)c1c(C(F)(F)F)nc(C(F)F)c(C(=O)OC)c1N | 72 to 74
CCCCCCCCCCC1CNC(=O)O1 (stereo unspecified) | 86 to 87
C=C1CN(c2c(F)cc3c(=O)c(C(=O)O)cn(C4CC4)c3c2F)CC1NC (stereo unspecified) | 239 to 243
CCCCOC(=O)Nc1cccc(NC(=O)C=C(C)OC)c1 | 100

SMILES | melting point [°C]
COC(=O)CN(CC(=O)OC)c1cccc([N+](=O)[O-])c1 | 54 to 57
O=C1c2ccccc2COc2cc(Br)ccc21 | 110 to 112
O=C(NCc1ccc(Cl)cc1)c1cnc2c(F)cc(C#CCCCO)cc2c1O | 208 to 209
CC(NC(=O)Nc1ccc(CN2C(=O)C3CCCC3N(C(=O)CN3C(=O)c4ccccc4C3=O)c3ccccc32)cc1)c1ccccc1 (stereo unspecified) | 156 to 160
O=C1Nc2ccc(-c3cccc(Cl)c3)cc2C12OCCCO2 | 242 to 244
COC(=O)c1ccccc1-n1c(CCl)nc2cccc(Cl)c2c1=O | 177 to 178
COC(=O)/C=C/c1nccs1 | 75 to 75.5
O=Cc1ccc2ccc3c4ccccc4ccc3c2c1 | 177 to 178
COc1ccc(N2CCN(c3c(C)c(C)c4c(c3C)C(=CCc3ccccc3)C(C)(C)O4)CC2)cc1 | 166 to 167
COC(=O)C(C(=O)OC)=C(C)N | 81 to 82
CCCCCCc1cc2c(cc1C(=O)O)C(C)(C)CCC2(C)C | 98 to 99
COc1ccc(C2C3=C(COC3=O)Nc3ccc4cn[nH]c4c32)cc1O (stereo unspecified) | 243 to 245
OC1Cc2cccc(Br)c2C1 (stereo unspecified) | 80
CCn1ncc2c3noc(C)c3cnc21 | 181 to 182
Cc1c(C)c2c(c(C)c1O)CCC(C)(CCOC(=O)C(C)c1ccc(-c3ccccc3)c(F)c1)O2 (stereo unspecified) | 85 to 87
COc1ccc(CC(=O)O)cc1OCCCc1cn(-c2ccc(C(F)(F)F)cn2)nc1C(C)C | 122 to 123
CON1CCC(C#N)(N(O)C(=O)Cc2cc(C)ccc2C)CC1 | 153 to 156
COC(=O)Cc1ccc(C(F)(F)F)cc1NC(C)=O | 92 to 94
CNc1nc(-c2cccc(NC(=O)c3ccc(OCc4ccccc4)cc3)c2)c2cc(OC)c(OC)cc2n1 | 110 to 112
CCNC(=O)N(O)CC#Cc1cccc(C2=N[C@H](c3ccccc3)CO2)c1 | 141 to 143
O=C(O)c1ccc2c(c1)Sc1ccccc1S2 | 220
COc1cc(OC)c(NC(=O)Nc2ccccc2)cc1O | 162 to 164
CC1(C)C=Cc2cc(S(=O)(=O)c3ccccc3)ccc2O1 | 95 to 96
CC(C)c1c(CO)c(-c2ccc(F)cc2)c2ccccn12 | 90 to 92
O=C(NC1CC1)c1ccc(N2CCNCC2)cc1 | 175 to 177
CCOC(=O)C(=NOCSC)c1csc(NC=O)n1 | 130 to 131

SMILES | melting point [°C]
COC(=O)[C@@H]1C(=O)Nc2ccccc2C[C@H]1c1ccc2c(c1)OCO2 (racemic) | 211 to 214
CCC(=O)c1cn(C)cc(-c2cccc(C(F)(F)F)c2)c1=O | 136 to 138
CN1CCC(c2cccc3ccc(O)cc23)CC1 | 144 to 146
CC(C)Cn1c(C(F)(F)F)nc2ccc(-n3c(=O)cc(C(F)(F)F)n(C)c3=O)cc21 | 156 to 159
COC(=O)c1ccc(OCCNC(=O)C2Cc3ccccc3N2S(=O)(=O)c2ccc(-c3ccc(F)cc3)cc2)c(C)c1 (stereo unspecified) | 81 to 85
O=C(O)CCCN1CCN(C(=O)c2cc(C(F)(F)F)cc(C(F)(F)F)c2)[C@H](Cc2c[nH]c3ccccc23)C1 | 112 to 120
CCn1cc(CN(C(=O)C2CCCc3c(O)cccc32)c2ccc(C(C)C)nc2)cn1 (stereo unspecified) | 173
CCCCc1c(C)c2ccc(OCCCN3CCC(NC(=O)c4ccccc4)CC3)cc2oc1=O | 170 to 171
Cc1cc(Cc2nnc(Nc3ccc(Cl)cc3)c3ccccc23)cc(C)n1 | 175 to 176
Cc1ccc(S(=O)(=O)Nc2cccc3cc(C(=O)Nc4ccccc4)[nH]c23)cc1 | 247 to 248
Cc1nccc(N)c1N | 170 to 171
CCN(CCOC)C(=O)C1=CC(c2ccccc2)C(=O)n2cc3cccc(Cl)c3c21 (stereo unspecified) | 146 to 148
CCCN(CCSc1nc(-c2ccccc2)c(-c2ccccc2)[nH]1)C(=O)Nc1ccc(F)cc1F | 189 to 190
Cc1ccc(CO)cc1NC(=O)c1cccc([N+](=O)[O-])c1 | 198 to 200
CC1(C)C(=O)C(C)(C)c2cc([N+](=O)[O-])c([N+](=O)[O-])cc21 | 212 to 218
CSc1cc(C)nc(SC)c1NC(=O)CCl | 190 to 192
O=[N+]([O-])c1ccc(Oc2ccc(O)c(Cl)c2Cl)cc1 | 147 to 150
N#Cc1ccc(NC(=O)c2cccc(OCc3ccc(F)c(F)c3)c2)cc1 | 173 to 174
CC1(C)Oc2ccc(C(=O)CO)cc2[C@H](NC(=O)c2cc(F)cc(F)c2)[C@H]1O | 179
CC(=O)[NH+]([O-])C[C@@H]1CN(c2ccc(N3CCOCC3)c(F)c2)C(=O)O1 (stereo partly specified) | 202 to 204
O=C(c1c[nH]c2ccc(Br)cc12)[C@H]1CCCN1C(=O)OCc1ccccc1 | 95 to 96
Nc1c2c(nc3ccc(Br)cc13)CCC2 | 236 to 238
Nc1ccc(-c2noc(-c3cnn4c(C(F)(F)F)cc(-c5cccc(C(F)(F)F)c5)nc34)n2)cn1 | 264
COc1cc(Br)c(I)cc1OC | 98 to 100
CNC(=C[N+](=O)[O-])NCCCSc1nccc(NC(N)=NCC(F)(F)F)n1 | 189 to 191
CCOc1ccc2c(S(=O)(=O)c3ccc(OCc4ccccc4)cc3)c(C(C)C)cn2c1 | 153

SMILES | melting point [°C]
O=Cc1cc2c(ccc3c4ccccc4ccc23)o1 | 169
CC(=O)NC[C@H]1CN(c2ccc(N3CCC(=C(C)C#N)CC3)cc2)C(=O)O1 | 94 to 96
O=[N+]([O-])c1cccc(-c2nnc(Nc3cccc(SCCCc4ccccc4)c3)s2)c1 | 169 to 171
CCOC(=O)N1CCN(c2cc3ccccc3c(=O)[nH]2)CC1 | 191 to 192
CC(=O)N1CCCc2ccc(S(=O)(=O)C[N+](=O)[O-])cc21 | 155
COC(=O)CSCNC(=O)c1ccccc1 | 65 to 68
O=C(Nc1ccccc1)c1ccc2c(c1)N(C1CC1)C=NS2(=O)=O | 278 to 281
NC(=O)CCCCn1ccc(NC(N)=NCC(F)(F)F)n1 | 130
CC(C)Oc1ccc(-n2c(C(=O)NC(C)(C)C(=O)O)c(Cl)c3cc(Oc4ccc(C(F)(F)F)cc4)ccc32)cc1 | 187 to 188
CC(C)C(=O)c1cn(Cc2c(F)cccc2F)c2sc(-c3ccc([N+](=O)[O-])cc3)c(CBr)c2c1=O | 202 to 204
Cc1nc2cc(OC3SCC(O)C(O)C3O)ccc2s1 (stereo unspecified) | 210 to 211
COc1ccccc1CCNC(=S)Nc1nc2ccccc2[nH]1 | 176 to 184
CCCCCCCCCCCCCCCCCCc1ccc(O)c([N+](=O)[O-])c1 | 71
Cc1ccc(-c2c(-c3ccc(S(N)(=O)=O)cc3)cnn(-c3ccc(F)c(F)c3)c2=O)cc1F | 198 to 200
COC(=O)c1coc(CN2C(=O)C3(COc4cc5c(cc43)OCO5)c3ccccc32)n1 (stereo unspecified) | 183 to 185
COc1cc(-c2nc3ccc(OCCCN(C)C)cc3n2Cc2ccccc2Br)cc(OC)c1OC | 141
C=CC=C1SC(=S)N(CC(=O)O)C1=O | 144 to 146
CC1(C)SCN(CCCCN2CCN(c3n[nH]c4ccccc34)CC2)C1=O | 139 to 142
CCCn1c(=O)c2[nH]c(/C=C/c3ccc(OC)c4ccccc34)nc2n(CCC)c1=O | > 280
CCCCC(C)n1ncc(-c2ccc(S(C)(=O)=O)cc2)c(-c2ccc(F)cc2)c1=O (stereo unspecified) | 79 to 80
C[C@H](CN1CC(F)C1)NC(=O)c1c[nH]c2ncc(-c3nn(C)c4cc(Cl)ccc34)nc12 | 182 to 185
CCOC(=O)c1cnc(-c2ccccc2)nc1-c1ccc([N+](=O)[O-])cc1 | 138 to 140
Cc1cc(C(O)(C(F)(F)F)C(F)(F)F)c2ccccc2c1NS(C)(=O)=O | 174
